Earlier results, collected in patent US20120238571A1, “INDAZOLE DERIVATIVES AS PI 3-KINASE” (Glaxo Group Limited, priority 2009, published 2012).
Like-named read-outs stand apart in the source and are kept apart here.

Assays:
CK2 protein kinase = CK2 protein kinase (Homo sapiens, UniProt P68400)
Chain of CK2 protein kinase (P68400 whole entry): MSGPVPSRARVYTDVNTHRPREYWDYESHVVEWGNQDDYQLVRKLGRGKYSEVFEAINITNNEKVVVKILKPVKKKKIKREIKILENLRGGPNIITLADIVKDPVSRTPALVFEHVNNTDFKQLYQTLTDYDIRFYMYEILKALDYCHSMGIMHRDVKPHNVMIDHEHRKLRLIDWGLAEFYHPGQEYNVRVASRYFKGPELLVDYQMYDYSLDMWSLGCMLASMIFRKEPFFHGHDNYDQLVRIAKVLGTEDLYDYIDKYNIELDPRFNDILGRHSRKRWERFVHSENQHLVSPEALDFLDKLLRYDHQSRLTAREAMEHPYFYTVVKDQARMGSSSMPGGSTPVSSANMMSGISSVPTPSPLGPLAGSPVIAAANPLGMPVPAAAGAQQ

COC[C@H]1OC(=O)c2coc3c2[C@@]1(C)C1=C(C3=O)[C@@H]2CCC(=O)[C@@]2(C)C[C@H]1OC(C)=O [wortmannin]
IC50 (Class I PI3-kinases; each of the four Class I PI3-kinases, read-out: IC50 against each of the various Class I PI3-kinases): 0.001 to 0.01 µM

O=c1cc(N2CCOCC2)oc2c(-c3ccccc3)cccc12 [LY294002]
IC50 (Class I PI3-kinases; each of the Class I PI3-kinases, Fruman et al. 1998, read-out: IC50 against each of these PI3-kinases): 15 to 20 µM | IC50 (CK2 protein kinase): 5 to 10 µM
